Square brackets hold non-standard residues; d marks the D form. Side chains are listed from the residue outwards. Ends that are not written are not given here. 5'‑hexylamino oligonucleotide ISIS 786434 = not defined here; Aib = CC(C)(N)C(=O)O; Mpa = O=C(O)CCS
What was measured:
MALAT1 [1] = experiment: Effect of peptide composition and attachment point on peptide-conjugated ASO activity in LVX-GLP1R cells; format: cell-based, human; details: 7 doses in a 4-fold dilution series, MALAT1 RNA
[2] = Food intake of mice after single subcutaneous injection of GLP-1 conjugated ASO; format: in vivo, mouse
Description: Groups of eight mice were administered a single subcutaneous injection of 0.01, 0.03, or 0.1 μmol/kg of ION 816385 (GLP-1 conjugated MALAT-1 ASO conjugated via a disulfide linker) or 0.1 μmol/kg ION 1123118 (GLP-1 conjugated MALAT-1 ASO conjugated via a maleimide acid linker), as indicated in the table below, and food intake was measured for 24 hours. Food intake of eight mice administered a subcutaneous injection of PBS was monitored as a control.

MALAT1 mRNA = experiment: Dose dependent antisense inhibition of MALAT1 in WT HEK293 cells; format: cell-based, human; details: approximately 24 hrs, qRT-PCR normalized to RPLP0
MALAT1 [3] = experiment: MALAT1 inhibition in isolated islets 72 hrs after single s.c. dose, various linkers; format: in vivo, mouse
MALAT-1 = experiment: Dose-dependent reduction of MALAT-1 expression in LVX-GLP1R cells; format: cell-based, human
Description: HEK cells stably expressing FLAG-tagged GLP1R were generated by infecting HEK 293 cells with FLAG-tagged GLP1R containing lentivirus produced by transfection of 293T cells with pLVX-IRES-Puro (Clontech Laboratories Inc., Mountainview, CA) harboring the FLAG-GLP1R insert. Infected cells were selected with puromycin (2 μg/ml) and then analyzed for receptor expression by western blot and immunofluorescence. Cultured GLP1R cells were plated at a density of 10,000 cells per well and treated with 0.3, 1, 3, 9, 27, 82, 247, 741, 2,222, 6,667, and 20,000 nM modified oligonucleotide for approximately 24 hours. After the treatment period, total RNA was prepared using an RNeasy mini kit (Qiagen, Valencia, CA, USA) and qRT-PCR was performed using the primer probe set RTS2739 (forward sequence: […] (SEQ ID NO: 74), reverse sequence: […] (SEQ ID NO: 75), probe sequence: […] (SEQ ID NO: 76). Briefly, ˜50 ng total RNA in 5 d water was mixed with 0.3 d primer probe sets containing forward and reverse primers (10 μM of each) and fluorescently labeled probe (3 μM), 0.3 W RT enzyme mix (Qiagen), 4.4 d RNase-free water, and 10 d of 2×PCR reaction buffer in a 20 d reaction. Reverse transcription was performed at 48° C. for 10 min, 40 cycles of PCR were conducted at 94° C. for 20 s, and 60° C. for 20 s within each cycle, using StepOne Plus RT-PCR system (Applied Biosystems, Phoenix, AZ, USA). The mRNA levels were normalized to the amount of total RNA present in each reaction as determined by Ribogreen assay (Life Technologies) and normalized to the saline control (100% expression).

For “ISIS 816385 (H[Aib]EGTFTSDVSSYLEEQAAKEFIAWLVKGGPSSGAPPPSC([Mpa-5'‑hexylamino oligonucleotide ISIS 786434])-NH2; reading uncertain; also: Cys40 joined to the linker by a disulfide)”, the IC50 (MALAT1 [1]) was 350 nM, the “Cumulative Food Intake” value ([2]; 0.01 μmol/kg single s.c., Time 1 h) was 0.10 g and the “Cumulative Food Intake” value ([2]; 0.01 μmol/kg single s.c., Time 2 h) was 0.25 g. For the same substance, the “Cumulative Food Intake” value ([2]; 0.01 μmol/kg single s.c., Time 3 h) was 0.40 g, the “Cumulative Food Intake” value ([2]; 0.01 μmol/kg single s.c., Time 4 h) was 0.56 g and the “Cumulative Food Intake” value ([2]; 0.01 μmol/kg single s.c., Time 5 h) was 0.71 g. For the same substance, the “Cumulative Food Intake” value ([2]; 0.01 μmol/kg single s.c., Time 6 h) was 0.86 g, the “Cumulative Food Intake” value ([2]; 0.01 μmol/kg single s.c., Time 7 h) was 1.09 g and the “Cumulative Food Intake” value ([2]; 0.01 μmol/kg single s.c., Time 8 h) was 1.23 g. The “Cumulative Food Intake” value ([2]; 0.01 μmol/kg single s.c., Time 9 h) was 1.34 g, the “Cumulative Food Intake” value ([2]; 0.01 μmol/kg single s.c., Time 10 h) was 1.47 g and the “Cumulative Food Intake” value ([2]; 0.01 μmol/kg single s.c., Time 11 h) was 1.61 g. The “Cumulative Food Intake” value ([2]; 0.01 μmol/kg single s.c., Time 12 h) was 1.81 g, the “Cumulative Food Intake” value ([2]; 0.01 μmol/kg single s.c., Time 13 h) was 1.97 g and the “Cumulative Food Intake” value ([2]; 0.01 μmol/kg single s.c., Time 14 h) was 2.22 g. For the same substance, the “Cumulative Food Intake” value ([2]; 0.01 μmol/kg single s.c., Time 15 h) was 2.26 g, the “Cumulative Food Intake” value ([2]; 0.01 μmol/kg single s.c., Time 16 h) was 2.31 g and the “Cumulative Food Intake” value ([2]; 0.01 μmol/kg single s.c., Time 17 h) was 2.57 g. The “Cumulative Food Intake” value ([2]; 0.01 μmol/kg single s.c., Time 18 h) was 2.57 g, the “Cumulative Food Intake” value ([2]; 0.01 μmol/kg single s.c., Time 19 h) was 2.58 g and the “Cumulative Food Intake” value ([2]; 0.01 μmol/kg single s.c., Time 20 h) was 2.64 g. For the same substance, the “Cumulative Food Intake” value ([2]; 0.01 μmol/kg single s.c., Time 21 h) was 2.64 g, the “Cumulative Food Intake” value ([2]; 0.01 μmol/kg single s.c., Time 22 h) was 2.69 g and the “Cumulative Food Intake” value ([2]; 0.01 μmol/kg single s.c., Time 23 h) was 2.69 g. For the same substance, the “Cumulative Food Intake” value ([2]; 0.01 μmol/kg single s.c., Time 24 h) was 2.69 g, the “Cumulative Food Intake” value ([2]; 0.03 μmol/kg single s.c., Time 1 h) was 0.15 g and the “Cumulative Food Intake” value ([2]; 0.03 μmol/kg single s.c., Time 2 h) was 0.21 g. The “Cumulative Food Intake” value ([2]; 0.03 μmol/kg single s.c., Time 3 h) was 0.26 g, the “Cumulative Food Intake” value ([2]; 0.03 μmol/kg single s.c., Time 4 h) was 0.31 g and the “Cumulative Food Intake” value ([2]; 0.03 μmol/kg single s.c., Time 5 h) was 0.38 g. For the same substance, the “Cumulative Food Intake” value ([2]; 0.03 μmol/kg single s.c., Time 6 h) was 0.48 g, the “Cumulative Food Intake” value ([2]; 0.03 μmol/kg single s.c., Time 7 h) was 0.53 g and the “Cumulative Food Intake” value ([2]; 0.03 μmol/kg single s.c., Time 8 h) was 0.55 g. The “Cumulative Food Intake” value ([2]; 0.03 μmol/kg single s.c., Time 9 h) was 0.66 g, the “Cumulative Food Intake” value ([2]; 0.03 μmol/kg single s.c., Time 10 h) was 0.73 g and the “Cumulative Food Intake” value ([2]; 0.03 μmol/kg single s.c., Time 11 h) was 0.79 g. The “Cumulative Food Intake” value ([2]; 0.03 μmol/kg single s.c., Time 12 h) was 0.89 g, the “Cumulative Food Intake” value ([2]; 0.03 μmol/kg single s.c., Time 13 h) was 0.99 g and the “Cumulative Food Intake” value ([2]; 0.03 μmol/kg single s.c., Time 14 h) was 1.07 g. The “Cumulative Food Intake” value ([2]; 0.03 μmol/kg single s.c., Time 15 h) was 1.09 g, the “Cumulative Food Intake” value ([2]; 0.03 μmol/kg single s.c., Time 16 h) was 1.22 g and the “Cumulative Food Intake” value ([2]; 0.03 μmol/kg single s.c., Time 17 h) was 1.23 g. For the same substance, the “Cumulative Food Intake” value ([2]; 0.03 μmol/kg single s.c., Time 18 h) was 1.26 g, the “Cumulative Food Intake” value ([2]; 0.03 μmol/kg single s.c., Time 19 h) was 1.29 g and the “Cumulative Food Intake” value ([2]; 0.03 μmol/kg single s.c., Time 20 h) was 1.33 g. For the same substance, the “Cumulative Food Intake” value ([2]; 0.03 μmol/kg single s.c., Time 21 h) was 1.39 g, the “Cumulative Food Intake” value ([2]; 0.03 μmol/kg single s.c., Time 22 h) was 1.39 g and the “Cumulative Food Intake” value ([2]; 0.03 μmol/kg single s.c., Time 23 h) was 1.39 g. The “Cumulative Food Intake” value ([2]; 0.03 μmol/kg single s.c., Time 24 h) was 1.39 g, the “Cumulative Food Intake” value ([2]; 0.1 μmol/kg single s.c., Time 1 h) was 0.06 g and the “Cumulative Food Intake” value ([2]; 0.1 μmol/kg single s.c., Time 2 h) was 0.12 g. The “Cumulative Food Intake” value ([2]; 0.1 μmol/kg single s.c., Time 3 h) was 0.17 g, the “Cumulative Food Intake” value ([2]; 0.1 μmol/kg single s.c., Time 4 h) was 0.20 g and the “Cumulative Food Intake” value ([2]; 0.1 μmol/kg single s.c., Time 5 h) was 0.26 g. The “Cumulative Food Intake” value ([2]; 0.1 μmol/kg single s.c., Time 6 h) was 0.28 g, the “Cumulative Food Intake” value ([2]; 0.1 μmol/kg single s.c., Time 7 h) was 0.31 g and the “Cumulative Food Intake” value ([2]; 0.1 μmol/kg single s.c., Time 8 h) was 0.37 g. The “Cumulative Food Intake” value ([2]; 0.1 μmol/kg single s.c., Time 9 h) was 0.39 g, the “Cumulative Food Intake” value ([2]; 0.1 μmol/kg single s.c., Time 10 h) was 0.44 g and the “Cumulative Food Intake” value ([2]; 0.1 μmol/kg single s.c., Time 11 h) was 0.49 g. The “Cumulative Food Intake” value ([2]; 0.1 μmol/kg single s.c., Time 12 h) was 0.50 g, the “Cumulative Food Intake” value ([2]; 0.1 μmol/kg single s.c., Time 13 h) was 0.58 g and the “Cumulative Food Intake” value ([2]; 0.1 μmol/kg single s.c., Time 14 h) was 0.62 g. For the same substance, the “Cumulative Food Intake” value ([2]; 0.1 μmol/kg single s.c., Time 15 h) was 0.67 g, the “Cumulative Food Intake” value ([2]; 0.1 μmol/kg single s.c., Time 16 h) was 0.75 g and the “Cumulative Food Intake” value ([2]; 0.1 μmol/kg single s.c., Time 17 h) was 0.76 g. For the same substance, the “Cumulative Food Intake” value ([2]; 0.1 μmol/kg single s.c., Time 18 h) was 0.83 g, the “Cumulative Food Intake” value ([2]; 0.1 μmol/kg single s.c., Time 19 h) was 0.89 g and the “Cumulative Food Intake” value ([2]; 0.1 μmol/kg single s.c., Time 20 h) was 0.90 g. The “Cumulative Food Intake” value ([2]; 0.1 μmol/kg single s.c., Time 21 h) was 0.91 g, the “Cumulative Food Intake” value ([2]; 0.1 μmol/kg single s.c., Time 22 h) was 0.93 g and the “Cumulative Food Intake” value ([2]; 0.1 μmol/kg single s.c., Time 23 h) was 0.93 g. The “Cumulative Food Intake” value ([2]; 0.1 μmol/kg single s.c., Time 24 h) was 0.94 g, the IC50 (MALAT1 mRNA) was 2210 nM and the “In vivo ED50” value (MALAT1 [3]; MALAT1 in isolated islets, single subcutaneous injection) was 0.0088 µmol/kg. The “% MALAT1 inhibition” value (MALAT1 [3]; isolated islets, female C57BL/6Crl mice, single subcutaneous injection of 0.01 μmol/kg) was 41%, the “dose-dependent inhibition of MALAT-1” value (MALAT-1; GLP1R HEK cells, GLP-1 complexed ASOs with or without a TCA linker versus parent) was “increased dose-dependent inhibition” and the IC50 (MALAT-1; approximately 24 hours, read-out: IC50 (MALAT-1 expression in GLP1R HEK cells)) was 260 nM.

From patent publication US20240293563A1, “GLP-1 RECEPTOR LIGAND MOIETY CONJUGATED OLIGONUCLEOTIDES AND USES THEREOF” (priority 2017, published 2024)
